According to the supplement of paper PMC6045584:
± gives the standard deviation of the averaged measurements.

Legend:
[1] = compound: C=CC(=O)Nc1cc2c(Nc3ccc(F)c(Cl)c3)ncnc2cc1OCCCN1CCOCC1 [CANERTINIB]; assay: surviving fraction relative to DMSO-only wells; higher = less growth inhibition; settings: exposure time: 5 days
How it was run: (§1)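 Continuous five-day exposure to inhibitors at 0.5, 1, 5, 10, 50, 100, 500 and 1000 nM started 24 hours after log-phase tumour cell lines were seeded at 250–500 cells per well in 384-well plates. Luminescence was read after 10 minutes at room temperature. Viability is given as surviving fraction, meaning CellTiter-Glo luminescence normalised to the median of DMSO-only wells.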

[2] = compound: CC[C@@H]1C(=O)N(C)c2cnc(Nc3ccc(C(=O)NC4CCN(C)CC4)cc3OC)nc2N1C1CCCC1 [BI-2536]; assay: as above; settings: exposure time: 5 days
How it was run: as §1

Test System: 22RV1 PROSTATE
- surviving fraction ([1]; 0.5 nM): 0.981 ± 0.038
- surviving fraction ([1]; 1 nM): 0.913 ± 0.091
- surviving fraction ([1]; 5 nM): 0.985 ± 0.033
- surviving fraction ([1]; 10 nM): 1.08 ± 0.25
- surviving fraction ([1]; 50 nM): 1.05 ± 0.24
- surviving fraction ([1]; 100 nM): 1.01 ± 0.11
- surviving fraction ([1]; 500 nM): 1.12 ± 0.22
- surviving fraction ([1]; 1000 nM): 0.905 ± 0.14
- surviving fraction ([2]; 0.5 nM): 1.01 ± 0.1
- surviving fraction ([2]; 1 nM): 0.973 ± 0.029
- surviving fraction ([2]; 5 nM): 0.1 ± 0.016
- surviving fraction ([2]; 10 nM): 0.085 ± 0.012
- surviving fraction ([2]; 50 nM): 0.159 ± 0.0085
- surviving fraction ([2]; 100 nM): 0.221 ± 0.012
- surviving fraction ([2]; 500 nM): 0.216 ± 0.013
- surviving fraction ([2]; 1000 nM): 0.213 ± 0.014

Test System: 93VU HEADNECK
- surviving fraction ([1]; 0.5 nM): 0.784 ± 0.029
- surviving fraction ([1]; 1 nM): 0.787 ± 0.065
- surviving fraction ([1]; 5 nM): 0.86 ± 0.034
- surviving fraction ([1]; 10 nM): 0.698 ± 0.042
- surviving fraction ([1]; 50 nM): 1.07 ± 0.053
- surviving fraction ([1]; 100 nM): 0.738 ± 0.062
- surviving fraction ([1]; 500 nM): 0.63 ± 0.02
- surviving fraction ([1]; 1000 nM): 0.312 ± 0.044
- surviving fraction ([2]; 0.5 nM): 1.11 ± 0.12
- surviving fraction ([2]; 1 nM): 1.05 ± 0.06
- surviving fraction ([2]; 5 nM): 0.507 ± 0.077
- surviving fraction ([2]; 10 nM): 0.27 ± 0.012
- surviving fraction ([2]; 50 nM): 0.258 ± 0.0056
- surviving fraction ([2]; 100 nM): 0.333 ± 0.056
- surviving fraction ([2]; 500 nM): 0.205 ± 0.023
- surviving fraction ([2]; 1000 nM): 0.123 ± 0.0066

Test System: A549 LUNG
- surviving fraction ([1]; 0.5 nM): 0.915 ± 0.018
- surviving fraction ([1]; 1 nM): 0.909 ± 0.018
- surviving fraction ([1]; 5 nM): 0.93 ± 0.014
- surviving fraction ([1]; 10 nM): 0.873 ± 0.01
- surviving fraction ([1]; 50 nM): 0.955 ± 0.046
- surviving fraction ([1]; 100 nM): 0.965 ± 0.026
- surviving fraction ([1]; 500 nM): 0.9707 ± 0.0042
- surviving fraction ([1]; 1000 nM): 0.948 ± 0.05
- surviving fraction ([2]; 0.5 nM): 1.02 ± 0.056
- surviving fraction ([2]; 1 nM): 1 ± 0.034
- surviving fraction ([2]; 5 nM): 0.48 ± 0.016
- surviving fraction ([2]; 10 nM): 0.28 ± 0.0067
- surviving fraction ([2]; 50 nM): 0.133 ± 0.0046
- surviving fraction ([2]; 100 nM): 0.0943 ± 0.0074
- surviving fraction ([2]; 500 nM): 0.0457 ± 0.0071
- surviving fraction ([2]; 1000 nM): 0.039 ± 0.003

Test System: ASKA SYNOVIAL
- surviving fraction ([1]; 0.5 nM): 0.958 ± 0.03
- surviving fraction ([1]; 1 nM): 0.93 ± 0.014
- surviving fraction ([1]; 5 nM): 1.04 ± 0.024
- surviving fraction ([1]; 10 nM): 0.917 ± 0.062
- surviving fraction ([1]; 50 nM): 1.16 ± 0.077
- surviving fraction ([1]; 100 nM): 1.09 ± 0.059
- surviving fraction ([1]; 500 nM): 0.933 ± 0.1
- surviving fraction ([1]; 1000 nM): 0.721 ± 0.047
- surviving fraction ([2]; 0.5 nM): 0.962 ± 0.057
- surviving fraction ([2]; 1 nM): 0.919 ± 0.066
- surviving fraction ([2]; 5 nM): 0.228 ± 0.012
- surviving fraction ([2]; 10 nM): 0.231 ± 0.0032
- surviving fraction ([2]; 50 nM): 0.256 ± 0.012
- surviving fraction ([2]; 100 nM): 0.219 ± 0.012
- surviving fraction ([2]; 500 nM): 0.185 ± 0.0081
- surviving fraction ([2]; 1000 nM): 0.238 ± 0.011

Test System: BT549 BREAST
- surviving fraction ([1]; 0.5 nM): 0.752 ± 0.037
- surviving fraction ([1]; 1 nM): 0.886 ± 0.18
- surviving fraction ([1]; 5 nM): 0.832 ± 0.08
- surviving fraction ([1]; 10 nM): 0.808 ± 0.042
- surviving fraction ([1]; 50 nM): 0.937 ± 0.18
- surviving fraction ([1]; 100 nM): 1.08 ± 0.052
- surviving fraction ([1]; 500 nM): 0.811 ± 0.072
- surviving fraction ([1]; 1000 nM): 0.47 ± 0.058
- surviving fraction ([2]; 0.5 nM): 0.905 ± 0.14
- surviving fraction ([2]; 1 nM): 0.923 ± 0.052
- surviving fraction ([2]; 5 nM): 0.229 ± 0.021
- surviving fraction ([2]; 10 nM): 0.132 ± 0.038
- surviving fraction ([2]; 50 nM): 0.0863 ± 0.0081
- surviving fraction ([2]; 100 nM): 0.0867 ± 0.011
- surviving fraction ([2]; 500 nM): 0.0667 ± 0.011
- surviving fraction ([2]; 1000 nM): 0.0373 ± 0.0093

Test System: C33A CERVIX
- surviving fraction ([1]; 0.5 nM): 1.08 ± 0.039
- surviving fraction ([1]; 1 nM): 1 ± 0.057
- surviving fraction ([1]; 5 nM): 1.37 ± 0.12
- surviving fraction ([1]; 10 nM): 1.04 ± 0.11
- surviving fraction ([1]; 50 nM): 1.1 ± 0.015
- surviving fraction ([1]; 100 nM): 0.84 ± 0.025
- surviving fraction ([1]; 500 nM): 0.578 ± 0.044
- surviving fraction ([1]; 1000 nM): 0.349 ± 0.006
- surviving fraction ([2]; 0.5 nM): 1.12 ± 0.021
- surviving fraction ([2]; 1 nM): 1.13 ± 0.085
- surviving fraction ([2]; 5 nM): 0.266 ± 0.052
- surviving fraction ([2]; 10 nM): 0.073 ± 0.011
- surviving fraction ([2]; 50 nM): 0.0473 ± 0.0068
- surviving fraction ([2]; 100 nM): 0.036 ± 0.007
- surviving fraction ([2]; 500 nM): 0.0303 ± 0.01
- surviving fraction ([2]; 1000 nM): 0.032 ± 0.015

Test System: CAL51 BREAST
- surviving fraction ([1]; 0.5 nM): 0.937 ± 0.078
- surviving fraction ([1]; 1 nM): 0.92 ± 0.061
- surviving fraction ([1]; 5 nM): 0.983 ± 0.053
- surviving fraction ([1]; 10 nM): 0.976 ± 0.018
- surviving fraction ([1]; 50 nM): 0.974 ± 0.038
- surviving fraction ([1]; 100 nM): 1.05 ± 0.083
- surviving fraction ([1]; 500 nM): 0.87 ± 0.014
- surviving fraction ([1]; 1000 nM): 0.481 ± 0.015
- surviving fraction ([2]; 0.5 nM): 0.966 ± 0.057
- surviving fraction ([2]; 1 nM): 0.87 ± 0.062
- surviving fraction ([2]; 5 nM): 0.0793 ± 0.0041
- surviving fraction ([2]; 10 nM): 0.0425 ± 0.0026
- surviving fraction ([2]; 50 nM): 0.0333 ± 0.0013
- surviving fraction ([2]; 100 nM): 0.0258 ± 0.0033
- surviving fraction ([2]; 500 nM): 0.0175 ± 0.00087
- surviving fraction ([2]; 1000 nM): 0.0207 ± 0.00076

Test System: CAL72 BONE
- surviving fraction ([1]; 0.5 nM): 0.982 ± 0.056
- surviving fraction ([1]; 1 nM): 0.989 ± 0.067
- surviving fraction ([1]; 5 nM): 0.979 ± 0.058
- surviving fraction ([1]; 10 nM): 0.969 ± 0.052
- surviving fraction ([1]; 50 nM): 1.02 ± 0.2
- surviving fraction ([1]; 100 nM): 1.11 ± 0.037
- surviving fraction ([1]; 500 nM): 1.03 ± 0.1
- surviving fraction ([1]; 1000 nM): 1.08 ± 0.053
- surviving fraction ([2]; 0.5 nM): 1 ± 0.019
- surviving fraction ([2]; 1 nM): 0.742 ± 0.12
- surviving fraction ([2]; 5 nM): 0.2 ± 0.021
- surviving fraction ([2]; 10 nM): 0.147 ± 0.033
- surviving fraction ([2]; 50 nM): 0.12 ± 0.026
- surviving fraction ([2]; 100 nM): 0.0987 ± 0.015
- surviving fraction ([2]; 500 nM): 0.104 ± 0.019
- surviving fraction ([2]; 1000 nM): 0.0927 ± 0.009

Test System: CAL120 BREAST
- surviving fraction ([1]; 0.5 nM): 0.903 ± 0.055
- surviving fraction ([1]; 1 nM): 0.91 ± 0.063
- surviving fraction ([1]; 5 nM): 0.91 ± 0.08
- surviving fraction ([1]; 10 nM): 0.902 ± 0.036
- surviving fraction ([1]; 50 nM): 0.921 ± 0.087
- surviving fraction ([1]; 100 nM): 0.928 ± 0.046
- surviving fraction ([1]; 500 nM): 0.795 ± 0.092
- surviving fraction ([1]; 1000 nM): 0.597 ± 0.021
- surviving fraction ([2]; 0.5 nM): 0.941 ± 0.025
- surviving fraction ([2]; 1 nM): 0.431 ± 0.034
- surviving fraction ([2]; 5 nM): 0.176 ± 0.0061
- surviving fraction ([2]; 10 nM): 0.151 ± 0.013
- surviving fraction ([2]; 50 nM): 0.126 ± 0.01
- surviving fraction ([2]; 100 nM): 0.113 ± 0.0079
- surviving fraction ([2]; 500 nM): 0.0725 ± 0.0027
- surviving fraction ([2]; 1000 nM): 0.0657 ± 0.0062

Test System: CASKI CERVIX
- surviving fraction ([1]; 0.5 nM): 0.83 ± 0.027
- surviving fraction ([1]; 1 nM): 0.8 ± 0.042
- surviving fraction ([1]; 5 nM): 0.644 ± 0.052
- surviving fraction ([1]; 10 nM): 0.704 ± 0.042
- surviving fraction ([1]; 50 nM): 0.555 ± 0.037
- surviving fraction ([1]; 100 nM): 0.516 ± 0.054
- surviving fraction ([1]; 500 nM): 0.157 ± 0.018
- surviving fraction ([1]; 1000 nM): 0.151 ± 0.022
- surviving fraction ([2]; 0.5 nM): 0.739 ± 0.024
- surviving fraction ([2]; 1 nM): 0.427 ± 0.068
- surviving fraction ([2]; 5 nM): 0.0607 ± 0.011
- surviving fraction ([2]; 10 nM): 0.0583 ± 0.0064
- surviving fraction ([2]; 50 nM): 0.0967 ± 0.015
- surviving fraction ([2]; 100 nM): 0.075
- surviving fraction ([2]; 500 nM): 0.0153 ± 0.0021
- surviving fraction ([2]; 1000 nM): 0.0183 ± 0.00058
